Reference: ChEMBL document CHEMBL5360537, “From lead to clinic: A review of the structural design of P2X7R antagonists” (Eur J Med Chem, 2023)

Key:
[1] = biological target: T1, P2X purinoceptor 7 (Homo sapiens, UniProt Q99572); test: Antagonist activity at human P2X7 receptor
T1 sequence (Q99572 whole entry): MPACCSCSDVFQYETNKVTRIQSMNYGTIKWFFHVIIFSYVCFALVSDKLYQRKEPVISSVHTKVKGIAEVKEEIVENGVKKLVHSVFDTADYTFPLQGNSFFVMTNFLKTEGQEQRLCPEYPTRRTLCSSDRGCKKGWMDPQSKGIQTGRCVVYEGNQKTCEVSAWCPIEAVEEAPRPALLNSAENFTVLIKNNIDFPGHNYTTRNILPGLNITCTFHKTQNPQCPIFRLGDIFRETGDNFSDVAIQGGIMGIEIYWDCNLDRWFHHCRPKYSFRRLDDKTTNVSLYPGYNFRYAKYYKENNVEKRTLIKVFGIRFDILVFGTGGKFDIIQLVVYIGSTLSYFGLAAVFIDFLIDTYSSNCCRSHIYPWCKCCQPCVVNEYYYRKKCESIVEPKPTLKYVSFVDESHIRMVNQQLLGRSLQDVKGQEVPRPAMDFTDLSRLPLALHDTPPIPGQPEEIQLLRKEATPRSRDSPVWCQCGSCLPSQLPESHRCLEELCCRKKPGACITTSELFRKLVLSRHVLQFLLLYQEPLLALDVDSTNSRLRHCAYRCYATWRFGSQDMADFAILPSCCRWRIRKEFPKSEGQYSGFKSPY

[2] = biological target: T1, P2X purinoceptor 7; test: Antagonist activity at human P2X7 receptor expressed in HEK293 by fluorescence plate reader analysis; assay type: cell-based
[3] = biological target: T2, P2X purinoceptor 7 (Rattus norvegicus, UniProt Q64663); test: Antagonist activity at rat P2X7 receptor by calcium flux assay
T2 sequence (Q64663 whole entry): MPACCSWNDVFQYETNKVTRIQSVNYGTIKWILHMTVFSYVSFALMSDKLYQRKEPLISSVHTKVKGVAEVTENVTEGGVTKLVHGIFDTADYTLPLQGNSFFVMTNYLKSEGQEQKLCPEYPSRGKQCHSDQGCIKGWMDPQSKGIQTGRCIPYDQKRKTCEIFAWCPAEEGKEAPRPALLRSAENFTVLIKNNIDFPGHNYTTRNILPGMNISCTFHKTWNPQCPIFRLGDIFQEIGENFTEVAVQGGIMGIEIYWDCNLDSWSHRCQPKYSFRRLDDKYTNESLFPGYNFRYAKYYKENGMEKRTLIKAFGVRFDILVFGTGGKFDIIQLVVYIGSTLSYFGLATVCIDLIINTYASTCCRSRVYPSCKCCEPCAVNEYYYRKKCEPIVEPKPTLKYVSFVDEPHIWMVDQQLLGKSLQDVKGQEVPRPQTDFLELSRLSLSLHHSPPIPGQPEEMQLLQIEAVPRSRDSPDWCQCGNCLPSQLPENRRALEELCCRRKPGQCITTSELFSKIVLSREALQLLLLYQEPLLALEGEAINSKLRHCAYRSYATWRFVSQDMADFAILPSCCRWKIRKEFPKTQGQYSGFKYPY

[4] = biological target: T1, P2X purinoceptor 7; test: Antagonist activity at human P2X7 receptor by calcium flux assay
[5] = biological target: T3, P2X purinoceptor 7 (Mus musculus, UniProt Q9Z1M0); test: Antagonist activity at mouse P2X7 receptor by calcium flux assay
T3 sequence (Q9Z1M0 whole entry): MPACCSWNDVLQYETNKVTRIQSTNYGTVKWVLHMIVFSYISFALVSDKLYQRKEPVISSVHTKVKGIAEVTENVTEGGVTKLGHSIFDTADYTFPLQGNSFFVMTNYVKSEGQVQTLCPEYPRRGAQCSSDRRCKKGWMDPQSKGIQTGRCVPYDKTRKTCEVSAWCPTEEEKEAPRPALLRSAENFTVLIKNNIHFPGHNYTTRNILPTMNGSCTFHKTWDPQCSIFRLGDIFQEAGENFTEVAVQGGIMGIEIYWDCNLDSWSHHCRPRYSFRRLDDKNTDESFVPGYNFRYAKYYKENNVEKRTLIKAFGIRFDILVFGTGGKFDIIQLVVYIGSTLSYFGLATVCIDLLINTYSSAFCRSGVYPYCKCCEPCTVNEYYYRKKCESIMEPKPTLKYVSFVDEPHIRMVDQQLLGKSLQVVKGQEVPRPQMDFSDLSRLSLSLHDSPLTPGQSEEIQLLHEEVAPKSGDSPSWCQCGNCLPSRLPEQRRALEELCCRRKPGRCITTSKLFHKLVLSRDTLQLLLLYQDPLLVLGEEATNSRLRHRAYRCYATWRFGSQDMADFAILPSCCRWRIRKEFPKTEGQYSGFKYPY

SMILES	IC50 [1] [µM]	IC50 [3] [µM]	IC50 [4] [µM]	IC50 [5] [µM]	other results
COc1nc(C)c(Nc2nc(=O)c3[nH]cnc3n2Cc2ccc(F)c(F)c2)cc1C	< 0.01				
COc1ccc(Nc2nc(=O)cc3n2C(c2ccccc2)CN3C)c(C)c1 (stereo not drawn)	< 0.01				
COCCn1cc(C(=O)NCc2ccco2)c2c(Cl)cccc21					IC50 [2]: > 1 µM
O=c1onc(Cc2c(F)cccc2Cl)n1CC1CC2CCC1C2 (stereo not drawn)		< 0.2	< 0.2	0.2	
COc1ccc(Nc2nc(=O)c3[nH]cnc3n2Cc2ccc(F)c(F)c2)c(C)c1	< 0.01				
CN1C(=O)N=C(NCc2ccccc2)N2C1=NCC2c1cc(F)c(F)c(F)c1 (stereo not drawn)	< 0.01				
C[C@H]1CCC[C@@](O)(CNC(=O)c2cn(CCC(F)F)c3cccc(Cl)c23)C1					IC50 [2]: < 0.01 µM
COCCn1cc(C(=O)NCc2nc3ccccc3s2)c2c(Cl)cccc21					IC50 [2]: > 1 µM
Cc1c(Cl)cccc1Nc1nc(=O)cc2n1C(c1ccccc1)CC2 (stereo not drawn)	< 0.01				
COc1ccc(Cc2noc(=O)n2CC2CCC(F)(F)CC2)cc1		1	1	1	
Cc1noc(C)c1Cc1noc(=O)n1CC1CCC(F)(F)CC1		0.2	< 0.2	1	
O=c1onc(Cc2ccccc2Cl)n1CC1CCC(F)(F)CC1		< 0.2	< 0.2	0.2	
COCCn1cc(C(=O)NCc2ccc(C(F)(F)F)cc2)c2c(Cl)cccc21					IC50 [2]: > 1 µM
Cc1nc2cc(C)c(Nc3nc(=O)c4[nH]cnc4n3Cc3ccc(F)cc3)cc2s1	0.011				
Cc1nc2cc(C)c(Nc3nc(=O)cc4n3C(c3ccc(F)cc3)CC4)cc2s1 (stereo not drawn)	< 0.01				
O=c1onc(CN2CCOc3ccccc32)n1CC1CCC(F)(F)CC1		< 0.2	< 0.2	< 0.2	
COCCn1cc(C(=O)NC[C@@]2(O)CCCC(F)(F)C2)c2c(Cl)cccc21					IC50 [2]: < 0.01 µM
CCN1C(=O)N=C(Nc2cc(C)c(C)cc2C)N2C1=NCC2c1ccccc1 (stereo not drawn)	< 0.01				
O=c1snc(Cc2c(F)cccc2Cl)n1CC1CCC(F)(F)CC1		< 0.2	< 0.2	< 0.2	

SMILES	IC50 [1] [µM]	IC50 [3] [µM]	IC50 [4] [µM]	IC50 [5] [µM]	other results
Cc1c(Cl)cccc1Nc1nc(=O)cc2n1C(c1ccccc1)CO2 (stereo not drawn)	< 0.01				
COc1ccc(Nc2nc(=O)c3onc(C)c3n2Cc2ccc(F)c(F)c2)c(C)c1	< 0.01				
O=c1onc(Cc2c(F)cccc2Cl)n1CC1CCC(F)(F)CC1		< 0.2	< 0.2	< 0.2	
O=c1onc(CN2CCC(F)(F)CC2)n1CC1CCC(F)(F)CC1		> 10	> 10	> 10	
O=c1onc(Cc2c(F)cccc2Cl)n1CC1CCC(C(F)(F)F)CC1 (stereo not drawn)		< 0.2	< 0.2	< 0.2	
CC1CC(F)(F)CCN1Cn1c(Cc2c(F)cccc2Cl)noc1=O (stereo not drawn)		< 0.2	< 0.2	< 0.2	
CCOC(C)CNC(=O)c1cn(C2COC2)c2cccc(Cl)c12 (stereo not drawn)					IC50 [2]: > 1 µM
COc1ccc(Nc2nc(=O)c3nn(C)cc3n2Cc2cc(F)c(F)c(F)c2)c(C)c1	< 0.01				
Cc1c(Cl)cccc1Nc1nc(=O)cc2n1C(c1ccccc1)COC2 (stereo not drawn)	0.0018				
CCc1cccc(Nc2nc(=O)c3[nH]cnc3n2Cc2ccc(F)cc2)c1CC	< 0.01				
O=c1onc(Cc2ccc(Cl)cc2Cl)n1CC1CCC(F)(F)CC1		< 0.2	< 0.2	0.2	
COc1cnc(C)c(Nc2nc(=O)c3c(n2Cc2cc(F)c(F)c(F)c2)CCC3)c1	0.1				
Cc1ncccc1Cc1noc(=O)n1CC1CCC(F)(F)CC1		1	0.2	1	
C[C@@H]1CCC[C@](O)(CNC(=O)c2cn(CC3CCCO3)c3cccc(Cl)c23)C1 (stereo partly drawn)					IC50 [2]: 0.01 µM
CC1CCCC(O)(CNC(=O)c2cn(C3COC3)c3cccc(Cl)c23)C1 (stereo not drawn)					IC50 [2]: < 0.01 µM
Cc1ccc(Cn2c(Nc3cc4sc(C)nc4cc3C)nc(=O)c3[nH]cnc32)cc1	0.5				
Cc1cc(Nc2nc(=O)c3[nH]cnc3n2Cc2ccccc2)c(C)cc1Cl	< 0.01				
O=c1onc(Cc2c(F)cccc2Cl)n1CC1CCCCCC1		< 0.2	< 0.2	0.2	
